Data as given in patent US20250206756A1, “INHIBITORS” (Pfizer Inc., priority 2023, published 2025).

Tested on: SZ95 human sebocytes
Assay: High content imaging assay to quantify lipid droplets in a human sebocyte cell line
Type: cell-based
Settings: 48 hours incubation, Bodipy neutral lipid staining, read-out: Human SZ95 Sebocyte Lipid Imaging Assay / Percent Inhibition of Lipid Droplets IC50
Experimental: High content imaging assay to quantify lipid droplets in a human sebocyte cell line One week prior to cell dosing, SZ95 human sebocytes were thawed and grown in a T175 tissue culture flask containing 50 mL media. Media was prepared as follows: Sebomed basal medium with stable glutamine and without phenol red (Sigma; Catalog No. F8205), 10% heat inactivated fetal bovine serum (Invitrogen; Cat. No. 10082), 5 ng/mL recombinant human epidermal growth factor (Gibco; Catalog No. PHG0311), 1 mM calcium chloride (Fisher Scientific; Catalog No. BP9742), and 1X penicillin/streptomycin (Thermo Fisher; Catalog No. 15140-122). Cells were cultured at 37° C. and the media was replaced every 48-72 hours until start of assay. Compounds were delivered as a 75 nL spot by the Echo 550 (Labcyte) into 384-well assay plates (PerkinElmer; Catalog No. 6057308) with final compound concentrations of […], 0.003, 0.001, 0.0003, and 0.0001 μM. The final DMSO concentration was 0.1%. SZ-95 cells were washed with Dulbecco's phosphate buffered saline (DPBS, Lonza; Catalog No. 17-512Q) and then detached with 0.25% Trypsin-EDTA (Gibco; Catalog No. 25200056). Growth media (25 mL) was added to the flask and the cells were further diluted to 1.33×10∧5 cells/mL. SZ-95 cells were plated at a density of 10,000 cells/well in 75 μL and incubated for 48 hours at 37° C. Using the Biomek FX (Beckman), 25 μL of media was removed and the cells were fixed by adding 18.7 μL of 16% paraformaldehyde (Electron Microscopy Sciences; Cat. No. 50980488). After a 30 minute incubation at room temperature, the plates were washed twice with 75pi DPBS. Following the second wash, all remaining DPBS was removed. Staining solution was prepared with 2 μM Bodipy (Invitrogen; Cat. No D3922, diluted 1:1000) and Hoechst (Life Technologies; Cat. No. H3570, diluted 1:2000) in DPBS. Using the Biomek FX, 30 μL of the staining solution was added to each well. The cells were incubated for 20 minutes at room temperature, then washed once with 75 μL DPBS. Finally, 30 μL of DPBS was added to each well and the plates were sealed with light blocking film. The plates were read on an Opera Phenix (PerkinElmer) for high content imaging. Nuclei were detected by Hoechst staining and lipid droplets by Bodipy, which stains neutral lipids. […] The percent (%) effect at each concentration of compound is calculated by Genedata Screener analysis program using a four-parameter logistic dose response equation and is based on and relative to the amount of lipid droplets in the positive and negative control wells contained within each assay plate to determine the 50% inhibition concentration (IC50).

Row | Structure (SMILES) | IC50 [nM]
1 | CCOc1cc(C(=O)N2CCC3(CC2)CC(=O)c2nc(C(C)(C)C)sc2C3)cc2c(C)n[nH]c12 [Example 1, 2-(tert-butyl)-1′-(7-ethoxy-3-methyl-1H-Indazole-5-carbonyl)-5H-spiro[benzo[d]thiazole-6,4′-piperidin]-4(7H)-one] | 10
2 | CCOc1cc(C(=O)N2CCC3(CC2)Cc2sc(C(C)(C)C)nc2[C@H](O)C3)cc2c(C)nn(C)c12 [Example 4a, (R)-(2-(tert-butyl)-4-hydroxy-4,7-dihydro-5H-spiro[benzo[d]thiazole-6,4′-piperidin]-1′-yl)(7-ethoxy-1,3-dimethyl-1H-indazol-5-yl)methanone] | 122
3 | CCOc1cc(C(=O)N2CCC3(CC2)Cc2sc(C(C)(C)C)nc2[C@@H](O)C3)cc2c(C)nn(C)c12 [Example 4b] | 7
4 | CCOc1cc(C(=O)N2CCC3(CC2)CC(=O)c2nc(C(C)(C)CO)sc2C3)cc2c(C)nn(C)c12 [Example 3, 1′-(7-ethoxy-1,3-dimethyl-1H-Indazole-5-carbonyl)-2-(1-hydroxy-2-methylpropan-2-yl)-5H-spiro[benzo[d]thiazole-6,4′-piperidin]-4(7H)-one] | 16
5 | Cc1nn(C)c2c(O)cc(C(=O)N3CCC4(CC3)CC(=O)c3nc(C(C)(C)C)sc3C4)cc12 [Example 2] | 11
6 | CCOc1cc(C(=O)N2CCC3(CC2)Cc2sc(C(C)(C)C)nc2C(O)C3)cc2c(C)nn(C)c12 (racemic) [Example 4, rac-(R)-(2-(tert-butyl)-4-hydroxy-4,7-dihydro-5H-spiro[benzo[d]thiazole-6,4′-piperidin]-1′-yl)(7-ethoxy-1,3-dimethyl-1H-indazol-5-yl)methanone] | 20
7 | Cc1nn(C)c2c(O)cc(C(=O)N3CCC4(CC3)CC(=O)c3nc(C(C)(C)CO)sc3C4)cc12 [Example 8] | > 0.145
